# From patent publication US5597806A, “Antifungal agents” (Merck & Co., Inc., priority 1995, dated 1997)
# Like-named read-outs stand apart in the source and are kept apart here.
# Columns and labels:
# Experiment in all cases: broth microdilution assay
# [1] = test system: Aspergillus fumigatus (MF4839); assay type: cell-based; conditions: for MIC: complete clearing
# Protocol: (§1) In the microbroth dilution assay, the selected microorganisms were grown by streaking a yeast culture on Sabouraud Dextrose agar (SDA) and incubating for 24-48 hr at 35°-37° C. Thereafter, 3-5 characteristic colonies were selected and transferred to CM-YNB+0.1% Dextrose Agar plates (1% Bactopeptone, 0.5% yeast extract, 6.7 g/L yeast nitrogen base with amino acids, 1 μM adenine, 0.1% dextrose, and 1.5% Bacto agar) and incubated overnight at 35°-37° C. From the regrowth, 3 to 5 colonies were selected and suspended in 5 ml of CM-YNBD media (same as above, only without agar) and incubated for 4-6 hr at 35°-37° C. shaking at 225 rpm. The broth cultures were adjusted spectrophotometrically to 86% transmission resulting in a concentration of 1-5×10^6 cfu/ml which was further diluted 1:100 (1:50 for Aspergillus) in CM-YNBD to obtain a concentration of 1-5 ×10^4 cfu/ml to use as inocula.
# (§2) The test compounds were prepared as a stock solution of 512 μg/ml in 10% DMSO and 75 μl of said solution delivered to a well in column one of each 96 well, U-bottomed microtiter plate that already contained 75 μl of CM-YNBD media per well. In the first run of the assay, Compound I was then serially diluted two fold from column 1 to column 12 to yield concentrations from 256 μg/ml to 0,125 μg/ml.
# as §2, with “Amphotericin B, the control compound, was” for “The test compounds were”, “The compound” for “In the first run of the assay, Compound I”
# (§3) The plates containing the diluted compounds were then inoculated with 75 μl/well of the appropriate microorganism resulting in a further 2-fold dilution such that the final concentration of test compounds ranged between 128 and 0.06 μg/ml. The plates were incubated for 48 hours at 35°-37° C. with MIC (minimum inhibitory concentration) determinations carried out after 24 hours of incubation. Growth and sterility controls for each organism and sterility checks for the compounds also were carried out. In three cases, a modified MIC endpoint (MIC2) was used.
# (§4) No MFC values are indicated for Aspergillus fumigatus since colony counts are unreliable with filamentous species. Instead, a Minimum Effective Concentration (MEC) is reported for A. fumigatus. The MEC is defined as the lowest concentration of drug which effects a severe morphological change in the cells. The MEC is scored […] by direct observation of the microtiter plate wells after 24 hours and reflects microscopic alterations in cell morphology (Kurtz et al. AAC:38:1480-1489[94]).
# (§5) In this run, Compound I was titrated from 64-0.03 μg/ml and Compound II was titrated from 128-0.06 μg/ml.
# [2] = test system: Aspergillus fumigatus (MF5668); assay type: cell-based; conditions: for MIC: complete clearing
# Protocol: as §1, §2
# as §2, with “Amphotericin B, the control compound, was” for “The test compounds were”, “The compound” for “In the first run of the assay, Compound I”
# as §3, §4, §5
# [3] = test system: Candida guillermondii (MY1019); assay type: cell-based; conditions: for MIC: complete clearing
# Protocol: as §1, §2
# as §2, with “Amphotericin B, the control compound, was” for “The test compounds were”, “The compound” for “In the first run of the assay, Compound I”
# as §3
# (§6) After recording MICs at 24 hours, samples are withdrawn to determine the MFC. The microtiter plates were shaken gently to resuspend the cells and […] sample was transferred from each well of the 96 well plate to the surface of a single reservoir inoculum plate containing 15 ml of SDA. The inoculated SDA and corresponding microtiter plates were incubated for 24 hours at 35°-37° C. For Cryptococcus neoformans, the MFC plates were inoculated after reading the 48 hour MICs and incubated for 48 hours before reading the MFC. The MFC is the lowest concentration of compound at which either no growth or growth of ≤3 colonies occurs.
# as §5
# [4] = test system: Candida parapsilosis (MY1010); assay type: cell-based; conditions: Lodderomyces parapsilosis
# Protocol: as §1, §2
# as §2, with “Amphotericin B, the control compound, was” for “The test compounds were”, “The compound” for “In the first run of the assay, Compound I”
# as §3, §6, §5
# [5] = test system: Candida albicans (MY1055); assay type: cell-based
# Protocol: as §1, §2
# as §2, with “Amphotericin B, the control compound, was” for “The test compounds were”, “The compound” for “In the first run of the assay, Compound I”
# as §3, §6, §5
# [6] = test system: Candida glabrata (MY1381); assay type: cell-based; conditions: Nakaseomyces glabratus; for MIC: complete clearing
# Protocol: as §1, §2
# as §2, with “Amphotericin B, the control compound, was” for “The test compounds were”, “The compound” for “In the first run of the assay, Compound I”
# as §3, §6, §5
# Candida albicans (CA2) = assay type: cell-based; conditions: comparative run, I 64-0.03, II 128-0.06 μg/ml, complete clearing
# Protocol: as §1, §2
# as §2, with “Amphotericin B, the control compound, was” for “The test compounds were”, “The compound” for “In the first run of the assay, Compound I”
# as §3, §6, §5
# [7] = test system: Cryptococcus neoformans (MY2062); assay type: cell-based; conditions: complete clearing
# Protocol: as §1, §2
# as §2, with “Amphotericin B, the control compound, was” for “The test compounds were”, “The compound” for “In the first run of the assay, Compound I”
# as §3, §6, §5
# [8] = test system: Saccharomyces cerevisiae (MY2140); assay type: cell-based; conditions: for MIC: complete clearing
# Protocol: as §1, §2
# as §2, with “Amphotericin B, the control compound, was” for “The test compounds were”, “The compound” for “In the first run of the assay, Compound I”
# as §3, §6, §5
# [9] = test system: Saccharomyces cerevisiae (MY2141); assay type: cell-based; conditions: for MIC: complete clearing
# Protocol: as §1, §2
# as §2, with “Amphotericin B, the control compound, was” for “The test compounds were”, “The compound” for “In the first run of the assay, Compound I”
# as §3, §6, §5
# [10] = test system: Candida albicans (CLY539); assay type: cell-based; conditions: for MIC: * = MIC2, prominent decrease in turbidity
# Protocol: as §1, §2
# as §2, with “Amphotericin B, the control compound, was” for “The test compounds were”, “The compound” for “In the first run of the assay, Compound I”
# as §3, §6, §5
# [11] = test system: Candida tropicalis (MY1012); assay type: cell-based; conditions: for MIC: complete clearing
# Protocol: as §1, §2
# as §2, with “Amphotericin B, the control compound, was” for “The test compounds were”, “The compound” for “In the first run of the assay, Compound I”
# as §3, §6, §5
# [12] = test system: Candida tropicalis (MY1124); assay type: cell-based
# Protocol: as §1, §2
# as §2, with “Amphotericin B, the control compound, was” for “The test compounds were”, “The compound” for “In the first run of the assay, Compound I”
# as §3, §6, §5
# [13] = test system: Candida pseudotroplicalis (MY2099); assay type: cell-based, Candida pseudotropicalis; conditions: for MIC: complete clearing
# Protocol: as §1, §2
# as §2, with “Amphotericin B, the control compound, was” for “The test compounds were”, “The compound” for “In the first run of the assay, Compound I”
# as §3
# as §6, with “The MFC is the lowest concentration of compound at which either no growth or growth of ≤3 colonies occurs.” left out
# [14] = comparative run, I 64-0.03, II 128-0.06 μg/ml
# [15] = comparative run, II 128-0.06 μg/ml, * = MIC2, prominent decrease in turbidity, read-out: MIC2
# [16] = first run, 128-0.06 μg/ml, 24 h
# [17] = first run, lowest concentration effecting severe morphological change, 24 h, read-out: MEC
# [18] = first run, 128-0.06 μg/ml, no growth or ≤3 colonies
# [19] = comparative run, I 64-0.03 μg/ml, complete clearing, read-out: MIC
# [20] = first run, 128-0.06 μg/ml, 24 h, * = MIC2, prominent decrease in turbidity, read-out: MIC2
structure (smiles),measurement,setting,value
C=C(CCC(C)C1CCC2(C(=O)O)C3=C(CCC12C)C1(C)CCC(OC2OC(CO)C(O)C(O)C2O)C(=C)C1CC3)C(C)C (stereo not shown) [Compound II],MIC,[1]; [14],> 128 µg/mL
same,MIC,[2]; [14],> 128 µg/mL
same,MIC,[3]; [14],> 128 µg/mL
same,MIC,[4]; [15],2 µg/mL
same,MIC,[5]; [15],1 µg/mL
same,MIC,[6]; [14],0.5 µg/mL
same,MIC,Candida albicans (CA2),> 128 µg/mL
same,MIC,[7]; [14],> 128 µg/mL
same,MIC,[8]; [14],1 µg/mL
same,MIC,[9]; [14],< 0.06 µg/mL
same,MIC,[10]; [14],> 128 µg/mL
same,MIC,[11]; [14],8 µg/mL
same,MIC,"[12]; comparative run, II 128-0.06 μg/ml, complete clearing, read-out: MIC",0.5 µg/mL
same,MIC,[13]; [14],< 0.06 µg/mL
C=C(CCC(C)C1CC(O)C2(C(=O)O)C3=C(CCC12C)C1(C)CCC(OC2OC(CO)C(OC)C(O)C2O)C(=C)C1CC3)C(C)C (stereo not shown) [Compound I],MIC,[1]; [14],> 64 µg/mL
same,MIC,[1]; [16],> 128 µg/mL
same,minimal effective concentration,[1]; [17],0.25 µg/mL
same,MIC,[2]; [14],> 64 µg/mL
same,MIC,[2]; [16],> 128 µg/mL
same,minimal effective concentration,[2]; [17],< 0.06 µg/mL
same,MIC,[3]; [14],> 64 µg/mL
same,MIC,[3]; [16],> 128 µg/mL
same,MFC,[3]; [18],> 128 µg/mL
same,MIC,[4]; [19],< 0.03 µg/mL
same,MIC,"[4]; first run, 128-0.06 μg/ml, 24 h, complete clearing, read-out: MIC",< 0.06 µg/mL
same,MFC,[4]; [18],< 0.06 µg/mL
same,MIC,[5]; [19],< 0.03 µg/mL
same,MIC,[5]; [20],2 µg/mL
same,MFC,[5]; [18],< 0.06 µg/mL
same,MIC,[6]; [16],< 0.06 µg/mL
same,MFC,[6]; [18],< 0.06 µg/mL
same,MIC,Candida albicans (CA2),> 64 µg/mL
same,MIC,[7]; [14],> 64 µg/mL
same,MIC,"[7]; first run, 128-0.06 μg/ml",32 µg/mL
same,MIC,[8]; [14],4 µg/mL
same,MIC,[8]; [16],8 µg/mL
same,MFC,[8]; [18],4 µg/mL
same,MIC,[9]; [14],< 0.03 µg/mL
same,MIC,[9]; [16],< 0.06 µg/mL
same,MFC,[9]; [18],< 0.06 µg/mL
same,MIC,[10]; [14],< 0.03 µg/mL
same,MIC,[10]; [16],0.5 µg/mL
same,MFC,[10]; [18],> 128 µg/mL
same,MIC,[11]; [14],8 µg/mL
same,MIC,[11]; [16],8 µg/mL
same,MFC,[11]; [18],8 µg/mL
same,MIC,"[12]; comparative run, I 64-0.03 μg/ml, * = MIC2, prominent decrease in turbidity, read-out: MIC2",< 0.03 µg/mL
same,MIC,[12]; [20],0.25 µg/mL
same,MFC,[12]; [18],0.125 µg/mL
same,MIC,[13]; [14],< 0.03 µg/mL
same,MIC,[13]; [16],< 0.06 µg/mL
same,MFC,[13]; [18],< 0.06 µg/mL
